Test [1] deals with T1, human metabotropic glutamate receptor mGluR5 (Homo sapiens, UniProt P41594).
T1 construct: expressed in transfected cells; host or cells: CHO-K1 (h5CHO), IPTG-inducible
Put plainly: Cytosolic calcium studies with stably transfected cells (h5CHO), functional assay of mGluR5 receptors. The test is classed as cell-based. The settings on record: for h left shift: h5CHO cells; for EC50: positive modulators, h5CHO cells preincubated with modulator, stimulated by an EC20 concentration of L-glutamate, read-out: hEC50. As for the experimental part:
Chinese hamster ovary cells (CHO-K1 cells), stably transfected for inducible expression of a human metabotropic glutamate receptor mGluR5 to form a cell line called h5CHO, are seeded into black clear bottom 96 well plates at a density of 35.000 cells per well. The standard growth medium used (Dulbecco's modified Eagle Medium, DMEM plus L-proline) contains the appropriate inducer isopropyl-β-D-thiogalactopyranosid (IPTG) to achieve optimal receptor expression. One day after seeding the growth medium is exchanged for reconstituted Ca-Kit (Molecular Devices, USA) and incubated for one hour. Ca-Kit is reconstituted in an assay buffer containing 20 mM HEPES pH 7.4, glutamic-pyruvate transaminase, pyridoxal phosphate and sodium pyruvate in Hank's balanced salt solution (HBBS). Agonistic compounds to the receptor elicit increases in cytosolic calcium which can be measured as increases in fluorescence signals by use of a fluorescence imaging plate reader (Molecular Devices). To analyze their potency to negatively modulate the Ca-response test compounds, dissolved in a final DMSO concentration of 0.5%, are added on-line 5 minutes before the agonist to the receptor (L-quisqualic acid at a concentration giving ~80% of the maximal signal). EC50 values for positive allosteric modulators were determined by stimulating the cells which have been preincubated the modulators by an EC20 concentration of L-glutamate.
(§1) The fluorescence signal increase after addition of agonist reflects the increase of cytosolic calcium. Inconsistencies in the amount of cells per well are normalised by using the spatial uniformity correction of the FLIPR operating software Screenworks. The mean of replicated temporal data (n=3-5) is calculated and used for graphical representation. For the evaluation of the pharmacology, the calcium changes in response to different concentrations of agonist or antagonist are determined using a maximum minus minimum (MaxMin) calculation.
(§2) All responses (RFU-values) are determined as percentage of control (= maximum response). EC50 and IC50 are calculated according the logistic equation using XLFit (IDBS, UK) or Prism 4.0 (GraphPad Software, USA). The compounds of the present invention have a potency (EC50 or IC50) within a range of about 0.5 nM to about 100 µM. The left shifts for positive or slient allosteric modulators (PAMs or SAMs, respectively) are determined by comparison of EC50 values from agonist dose response curves run in the presence of 10 µM modulator or vehicle (Vanejevs et al., J. Med. Chem., 2008, 51, 634-647).

In test [2] the target is T2, mGluR5 receptors (Rattus norvegicus, UniProt P31424).
T2 construct: Primary astrocyte cultures are prepared from cortices of newborn rats; endogenous in cells; host or cells: primary cortical astrocytes from Sprague-Dawley rat pups (2-4 d old)
Put plainly: Cytosolic calcium studies with astrocytes (FLIPR), functional assay of mGluR5 receptors. It is filed as cell-based. The method, then:
Primary astrocyte cultures are prepared from cortices of newborn rats as described by Booher and Sensenbrenner (1972, Neurobiology 2(3):97-105). Briefly, Sprague-Dawley rat pups (2 - 4 d old) are decapitated and neocortices are dissected, disintegrated with a nylon filter (pore size 80 µm) and carefully triturated. The cell suspension is plated on poly-D-lysine pre-coated flasks (Costar, Netherlands) and cultivated in Dulbecco's Modified Eagle's Medium (DMEM, Invitrogen, Germany) supplemented with 10% foetal calf serum (FCS, Sigma, Germany), 4 mM glutamine and 50 µg/ml gentamycin (both Biochrom, Germany) at 37°C in a humidified atmosphere of 5% CO2/ 95% air for 7 days with exchanging the medium at day 2 and 6.
After 7 days in vitro (DIV), cells are shaken overnight at 250 rpm to remove oligodendrocytes and microglia. The next day, astrocytes are rinsed twice with CMF-PBS (calcium- and magnesium-free phosphate buffered saline, Biochrom, Germany), trypsinized and subplated on poly-D-lysine pre-coated 96-well plates (Greiner, Germany) at a density of 40,000 cells/well. 24 h after establishing the secondary culture the astrocytes are rinsed with PBS^++ (phosphate buffered saline, Biochrom, Germany) and fed with astrocyte-defined medium (ADM) consisting of DMEM containing 1x G5-supplement (Invitrogen, Germany), 0.5 µg/ml heparan sulfate, and 1.5 µg/ml fibronectin (both Sigma, Germany) (Miller et al., (1993) Brain Res. 618(1):175-8). 3 days later the medium is exchanged and the cells incubated for another 2-3 days, so that at the time of experiments astrocytes are 14-15 DIV.
The increase of cytosolic calcium after stimulation with the mGluR5 agonist L-quisqualate is measured using a fluorometric imaging plate reader (FLIPR) and the Ca-Kit (both Molecular Devices). Prior to addition of agonist or antagonist the medium is aspirated and cells are loaded for 2 h at RT with 150 µl of loading buffer consisting of Ca-sensitive dye reconstituted in sodium chloride (123 mM), potassium chloride (5.4 mM), magnesium chloride (0.8 mM), calcium chloride (1.8 mM), D-glucose (15 mM), and HEPES (20 mM), pH 7.3. Subsequently, plates are transferred to FLIPR to detect calcium increase with the addition of L-quisqualate (100 nM) measured as relative fluorescence units (RFU). If antagonists are tested, these compounds are pre-incubated for 10 minutes at RT before addition of the respective agonist.
For positive modulators, concentration-response curves for quisqualate are performed in the presence and absence of 10 µM modulator to determine the extent of potentiation / agonist potency increase. Thereafter, concentration-response curves for the positive modulator are performed in the presence of a fixed concentration of quisqualate showing the biggest window for potentiation (normally 10-30 nM).
as §1, §2

The mark [3] stands for this setting: Table A1, left shift of agonist EC50, dose response curves in the presence of 10 µM modulator or vehicle.
[4] abbreviates: Table A1, positive modulators, fixed concentration of quisqualate (normally 10-30 nM), read-out: rEC50.
Setting [5] is: Table A1, left shift of quisqualate EC50 in the presence and absence of 10 µM modulator.
[6] abbreviates: Table A3 (SAMs / very weak PAMs), agonist EC50 shift with 10 µM modulator or vehicle.
The mark [7] stands for this setting: Table A3 (SAMs / very weak PAMs), quisqualate EC50 shift with 10 µM modulator.
Where [8] appears, read: Table A3, given in brackets where Ki is n.d., read-out: r EC50.

Where two headings read alike, the source gives them in different places.

The values below come from patent publication EP2650284A1, “Heterocyclic derivatives as metabotropic glutamate receptor modulators” (Merz Pharma GmbH & Co. KGaA, priority 2012, dated 2013).

T2 sequence (P31424 21-1203): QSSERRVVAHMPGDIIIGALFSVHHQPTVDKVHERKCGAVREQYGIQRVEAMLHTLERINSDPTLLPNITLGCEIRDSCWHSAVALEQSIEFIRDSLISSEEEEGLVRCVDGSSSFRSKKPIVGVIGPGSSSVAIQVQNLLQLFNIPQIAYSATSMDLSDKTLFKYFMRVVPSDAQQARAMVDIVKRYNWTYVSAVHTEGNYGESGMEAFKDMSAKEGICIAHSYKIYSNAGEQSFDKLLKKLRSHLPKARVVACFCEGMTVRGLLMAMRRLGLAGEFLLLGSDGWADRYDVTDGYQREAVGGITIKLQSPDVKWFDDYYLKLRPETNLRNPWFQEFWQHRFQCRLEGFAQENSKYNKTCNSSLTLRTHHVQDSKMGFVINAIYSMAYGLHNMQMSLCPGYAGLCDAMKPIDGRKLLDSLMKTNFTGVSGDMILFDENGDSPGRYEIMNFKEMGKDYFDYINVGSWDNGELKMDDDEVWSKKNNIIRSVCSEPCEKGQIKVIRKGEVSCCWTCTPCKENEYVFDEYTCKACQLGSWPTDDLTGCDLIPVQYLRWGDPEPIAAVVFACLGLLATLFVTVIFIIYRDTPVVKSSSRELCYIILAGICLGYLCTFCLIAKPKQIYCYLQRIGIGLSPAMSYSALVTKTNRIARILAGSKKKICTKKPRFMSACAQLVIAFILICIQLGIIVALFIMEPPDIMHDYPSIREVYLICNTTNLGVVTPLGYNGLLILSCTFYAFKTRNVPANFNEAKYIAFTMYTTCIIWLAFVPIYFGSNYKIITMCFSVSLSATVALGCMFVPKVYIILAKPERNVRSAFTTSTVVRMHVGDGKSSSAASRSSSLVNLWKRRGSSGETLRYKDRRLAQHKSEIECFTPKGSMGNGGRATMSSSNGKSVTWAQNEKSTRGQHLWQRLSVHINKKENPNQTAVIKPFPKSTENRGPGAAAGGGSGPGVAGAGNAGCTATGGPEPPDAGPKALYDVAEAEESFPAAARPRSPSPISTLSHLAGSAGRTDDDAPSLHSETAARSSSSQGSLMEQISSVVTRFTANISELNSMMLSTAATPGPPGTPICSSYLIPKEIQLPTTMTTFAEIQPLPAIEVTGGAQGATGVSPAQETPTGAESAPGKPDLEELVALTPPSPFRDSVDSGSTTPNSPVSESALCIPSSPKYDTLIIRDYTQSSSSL
T1 sequence (P41594 21-1212): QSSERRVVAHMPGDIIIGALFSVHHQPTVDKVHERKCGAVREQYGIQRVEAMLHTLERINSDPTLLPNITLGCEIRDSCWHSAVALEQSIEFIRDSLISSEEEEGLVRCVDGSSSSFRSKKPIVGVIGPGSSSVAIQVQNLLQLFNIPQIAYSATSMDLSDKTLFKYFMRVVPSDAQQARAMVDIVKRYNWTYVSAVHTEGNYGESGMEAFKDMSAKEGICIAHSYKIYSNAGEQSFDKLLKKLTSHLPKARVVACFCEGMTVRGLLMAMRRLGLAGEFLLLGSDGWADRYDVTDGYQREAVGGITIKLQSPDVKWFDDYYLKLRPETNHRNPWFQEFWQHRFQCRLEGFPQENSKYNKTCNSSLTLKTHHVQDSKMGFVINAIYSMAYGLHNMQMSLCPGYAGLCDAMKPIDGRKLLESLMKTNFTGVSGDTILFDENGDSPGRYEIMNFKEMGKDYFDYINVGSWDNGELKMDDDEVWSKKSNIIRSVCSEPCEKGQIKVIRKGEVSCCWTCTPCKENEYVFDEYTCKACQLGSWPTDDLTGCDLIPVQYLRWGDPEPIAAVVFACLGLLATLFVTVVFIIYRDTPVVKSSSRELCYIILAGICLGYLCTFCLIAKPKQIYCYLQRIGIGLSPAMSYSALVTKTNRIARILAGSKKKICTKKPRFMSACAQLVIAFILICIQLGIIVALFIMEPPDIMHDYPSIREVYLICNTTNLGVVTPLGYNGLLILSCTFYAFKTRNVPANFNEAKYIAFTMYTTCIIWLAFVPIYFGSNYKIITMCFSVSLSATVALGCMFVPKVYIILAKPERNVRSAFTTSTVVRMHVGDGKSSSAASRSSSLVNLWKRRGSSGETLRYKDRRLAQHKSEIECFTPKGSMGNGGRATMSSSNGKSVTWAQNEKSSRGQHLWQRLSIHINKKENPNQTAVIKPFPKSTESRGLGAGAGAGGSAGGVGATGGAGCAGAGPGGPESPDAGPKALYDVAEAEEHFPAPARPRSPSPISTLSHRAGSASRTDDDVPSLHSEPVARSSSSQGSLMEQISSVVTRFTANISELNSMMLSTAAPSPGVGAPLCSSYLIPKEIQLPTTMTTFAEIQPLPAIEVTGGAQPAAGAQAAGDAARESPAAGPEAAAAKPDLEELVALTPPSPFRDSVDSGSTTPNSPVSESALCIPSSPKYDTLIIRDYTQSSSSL

For `O=C(N1CCC1)N1CCO[C@@H]2c3cc(C#Cc4ccccc4)cnc3CC[C@@H]21` (racemic) [Example 65, (rac)-cis-Azetidin-1-yl-(9-(phenylethynyl)-5,6-dihydro-2H-[1,4]oxazino[2,3-f]quinolin-4(3H,4aH,10bH)-yl)methanone], in test [1] (setting [3]), the h left shift is recorded as 1.8-fold. The EC50 in test [2] (setting [4]) was determined as 3200 nM.
As for `O=C1OC2(CCCc3ncc(C#Cc4cccc(F)c4)cc32)CN1c1ccccc1` (racemic) [Example 67, (rac)-3'-((3-Fluorophenyl)ethynyl)-3-phenyl-7',8'-dihydro-6'H-spiro[oxazolidine-5,5'-quinolin]-2-one], in test [1] (setting [3]), the h left shift is listed as 2.1-fold. Further, the EC50 was determined as 1310 nM in test [1] (Table A1) and 88.3 nM in test [2] (setting [4]). Further, the r left shift in test [2] (setting [5]) is reported as 1.7-fold.
In the same order, the values of `COC(=O)N1C[C@H]2Cc3cc(C#Cc4cccc(F)c4)cnc3[C@H]2C1` (racemic) [Example 73, (rac)-cis-Methyl 3-((3-fluorophenyl)ethynyl)-5a,6,8,8a-tetrahydropyrrolo[3',4':4,5]cyclopenta[1,2-b]pyridine-7(5H)-carboxylate] are 2.7-fold, 546 nM, 219 nM and 2.7-fold.
As for `O=C1OC2(CCCc3ncc(C#Cc4ccccc4)cc32)CN1C1CC1` (racemic) [Example 74, (rac)-3-Cyclopropyl-3'-(phenylethynyl)-7',8'-dihydro-6'H-spiro[oxazolidine-5,5'-quinolin]-2-one], the h left shift in test [1] (setting [3]) is on record as 1.6-fold. The r left shift in test [2] (setting [5]) is reported as 1.5-fold. Besides, the EC50 in test [2] (setting [4]) worked out at 10.1 nM.
As to `O=C1OC2(CCCc3ncc(C#Cc4cccc(F)c4)cc32)CN1C1CC1` (racemic) [Example 76, (rac)-3-Cyclopropyl-3'-((3-fluorophenyl)ethynyl)-7',8'-dihydro-6'H-spiro[oxazolidine-5,5'-quinolin]-2-one], the h left shift in test [1] (setting [6]) is 1.6-fold. The r left shift in test [2] (setting [7]) is given as 1.4-fold. In addition, in test [2] (setting [8]), the EC50 is 50.5 nM.
Turning to `COC(=O)N1CC2Cc3cc(C#Cc4ccccc4)cnc3C2C1` (racemic) [Example 79, (rac)-Methyl 3-(phenylethynyl)-5a,6,8,8a-tetrahydropyrrolo[3',4':4,5]cyclopenta[1,2-b]pyridine-7(5H)-carboxylate], the h left shift in test [1] (setting [3]) is 2.6-fold. For the same compound, the EC50 in test [1] (Table A1) was found to be 64.7 nM; in test [2] (setting [4]), 167 nM. Moreover, the r left shift in test [2] (setting [5]) is given as 4.1-fold.
Turning to `COC(=O)N1CC[C@H]2CCc3cc(C#Cc4ccccc4)cnc3[C@H]21` (racemic) [Example 80, (rac)-cis-Methyl 7-(phenylethynyl)-2,3,3a,4,5,9b-hexahydro-1H-pyrrolo[3,2-h]quinoline-1-carboxylate], the h left shift in test [1] (setting [6]) is given as 1.5-fold. The r left shift in test [2] (setting [7]) is 1.8-fold. Besides, the EC50 in test [2] (setting [8]) was 35.5 nM.
With `CCCN1CC2(CCCc3ncc(C#Cc4ccccc4)cc32)OC1=O` (racemic) [Example 82, (rac)-3'-(Phenylethynyl)-3-propyl-7',8'-dihydro-6'H-spiro[oxazolidine-5,5'-quinolin]-2-one], the h left shift in test [1] (setting [3]) was 1.9-fold. In addition, the EC50 in test [1] (Table A1) was found to be 727 nM; in test [2] (setting [4]) it was 233 nM. In test [2] (setting [5]), the r left shift was 1.6-fold.
The matching figures for `CCCN1CCO[C@@H]2c3cc(C#Cc4ccccc4)cnc3CC[C@@H]21` (single isomer, unassigned) [Example 16, cis-9-(Phenylethynyl)-4-propyl-3,4,4a,5,6,10b-hexahydro-2H-[1,4]oxazino[2,3-f]quinoline]: 3.8-fold, 47 nM, 453 nM and 6.0-fold.
Consider `Cn1ncc2c1-c1cc(C#Cc3ccccc3)cnc1CC2` [Example 28, 1-Methyl-8-(phenylethynyl)-4,5-dihydro-1H-pyrazolo[3,4-f]quinoline], for which, in test [1] (setting [3]), the h left shift is recorded as 2.4-fold. Further, the EC50 in test [1] (Table A1) was determined as 19.2 nM. The r left shift in test [2] (setting [5]) is recorded as 2.2-fold.
As to `COC(=O)N1CC2CCc3ncc(C#Cc4ccccc4)cc3C2C1` (centres unmarked) [Example 30, Methyl 8-(phenylethynyl)-3,3a,4,5-tetrahydro-1H-pyrrolo[3,4-f]quinoline-2(9bH)-carboxylate], in test [1] (setting [3]), the h left shift is listed as 2.5-fold. Further, the EC50 in test [1] (Table A1) was found to be 345 nM; in test [2] (setting [4]), 256 nM. The r left shift in test [2] (setting [5]) was 3.0-fold.
Regarding `COC(=O)N1CC2CCc3ncc(C#Cc4cccc(F)c4)cc3C2C1` (centres unmarked) [Example 31, Methyl 8-((3-fluorophenyl)ethynyl)-3,3a,4,5-tetrahydro-1H-pyrrolo[3,4-f]quinoline-2(9bH)-carboxylate], the h left shift in test [1] (setting [3]) is reported as 2.6-fold. The results for the EC50 in test [1] (Table A1) and in test [2] (setting [4]) were 333 nM and 261 nM, respectively. Further, the r left shift in test [2] (setting [5]) was 1.5-fold.
In the same order, the values of `CC(C)(C)C(=O)N1CCc2ncc(C#Cc3ccccc3)cc2C1` [Example 34, 2,2-Dimethyl-1-(3-(phenylethynyl)-7,8-dihydro-1,6-naphthyridin-6(5H)-yl)propan-1-one] are 2.3-fold, 171 nM, 67.9 nM and 2.8-fold.
In the same order, the values of `CC1(C(=O)N2CCc3ncc(C#Cc4ccccc4)cc3C2)COC1` [Example 36, (3-Methyloxetan-3-yl)(3-(phenylethynyl)-7,8-dihydro-1,6-naphthyridin-6(5H)-yl)methanone] are 2.4-fold, 917 nM, 4040 nM and 2.7-fold.
For the compound `O=S(=O)(C1CC1)N1CCc2ncc(C#Cc3ccccc3)cc2C1` [Example 38, 6-(Cyclopropylsulfonyl)-3-(phenylethynyl)-5,6,7,8-tetrahydro-1,6-naphthyridine], the h left shift in test [1] (setting [3]) is recorded as 1.7-fold. Also, the r left shift in test [2] (setting [5]) is given as 2.5-fold. Further, the EC50 in test [2] (setting [4]) came out at 481 nM.
